# Results taken from patent publication US20140113904A1, “TREATMENT OF CANCER WITH TOR KINASE INHIBITORS” (SIGNAL PHARMACEUTICALS, LLC, priority 2012, published 2014).
# Where two headings read alike, the source gives them in different places.
# Key:
# Format in all cases: in vivo, SCID mice
# PC3 tumors = assay: Antitumor activity of Compound 2 in PC3 human prostate cancer xenograft model; conditions: for tumor volume reduction vs vehicle: Day 30
# [1] = Compound 2 concentrations in plasma by LC-MS/MS; conditions: for concentration at 0.5 h / concentration at 1 h / concentration at 3 h / concentration at 6 h / concentration at 10 h / concentration at 24 h / AUC(0-t): female, SCID, mouse, plasma; for concentration at 0.5 h / concentration at 1 h / concentration at 3 h / concentration at 6 h / concentration at 10 h / concentration at 24 h: oral; for AUC(0-t): po
# pAKT (S473) = pAKT (S473) in PC3 tumors, MSD (Compound 2); conditions: Mus musculus; for inhibition at 0.1 mg/kg: 0.1 mg/kg single oral dose; for inhibition at 0.3 mg/kg: 0.3 mg/kg single oral dose; for inhibition at 10 mg/kg: 10 mg/kg single oral dose
# DNA-PKcs = assay: Total DNA-PKcs immunohistochemistry in PC3 tumors (Compound 2); conditions: 5 mg/kg QD for 6 days, 2 hours after the last dose
# [2] = 0.5 h, read-out: PD Marker Inhibition (%) pAKT (S473)
# [3] = 1 h, read-out: PD Marker Inhibition (%) pAKT (S473)
# [4] = 3 h, read-out: PD Marker Inhibition (%) pAKT (S473)
# [5] = 6 h, read-out: PD Marker Inhibition (%) pAKT (S473)
# [6] = 10 h, read-out: PD Marker Inhibition (%) pAKT (S473)
# [7] = 24 h, read-out: PD Marker Inhibition (%) pAKT (S473)
smiles,measurement,setting,value
"CCN1C(=O)CNc2ncc(-c3ccc(-c4nc[nH]n4)nc3C)nc21 [Compound 2, 1-ethyl-7-(2-methyl-6-(1H-1,2,4-triazol-3-yl)pyridin-3-yl)-3,4-dihydropyrazino[2,3-b]pyrazin-2(1H)-one]",tumor volume reduction vs vehicle,PC3 tumors; 0.5 mg/kg BID,57%
same,tumor volume reduction vs vehicle,PC3 tumors; 1 mg/kg BID,66%
same,tumor volume reduction vs vehicle,PC3 tumors; 1 mg/kg QD,55%
same,tumor inhibition,"PC3 tumors; 1 mg/kg QD, Day 30 (BID/QD study)",the same as 0.5 mg/kg BID
same,tumor volume reduction vs vehicle,PC3 tumors; 2 mg/kg QD,63%
same,tumor volume reduction vs vehicle,PC3 tumors; 5 mg/kg QD,76%
same,lowest efficacious dose,"PC3 tumors; BID, approximately 65% tumor volume inhibition",1 mg/kg
same,Plasma Compound 2 Concentration (μM) Mean ± SEM,"[1]; 0.1 mg/kg single oral dose, 24 h",BLQ
same,Plasma Concentration (μM) Mean ± SEM,"[1]; 2 mg/kg QD, 10 h after last dose",0.21 ± 0.05 µM
same,concentration at 0.5 h,"[1]; 0.1 mg/kg, Plasma Compound 2 Concentration (μM) Mean ± SEM, 0.1 mg/kg single oral dose",0.05 µM
same,concentration at 1 h,"[1]; 0.1 mg/kg, Plasma Compound 2 Concentration (μM) Mean ± SEM, 0.1 mg/kg single oral dose, 1 h",0.04 µM
same,concentration at 3 h,"[1]; 0.1 mg/kg, Plasma Compound 2 Concentration (μM) Mean ± SEM, 0.1 mg/kg single oral dose, 3 h",0.02 µM
same,concentration at 6 h,"[1]; 0.1 mg/kg, Plasma Compound 2 Concentration (μM) Mean ± SEM, 0.1 mg/kg single oral dose, 6 h",0.02 µM
same,concentration at 10 h,"[1]; 0.1 mg/kg, Plasma Compound 2 Concentration (μM) Mean ± SEM, 0.1 mg/kg single oral dose, 10 h",0.01 µM
same,concentration at 0.5 h,"[1]; 0.3 mg/kg, Plasma Compound 2 Concentration (μM) Mean ± SEM, 0.3 mg/kg single oral dose",0.16 ± 0.03 µM
same,concentration at 1 h,"[1]; 0.3 mg/kg, Plasma Compound 2 Concentration (μM) Mean ± SEM, 0.3 mg/kg single oral dose, 1 h",0.16 ± 0.01 µM
same,concentration at 3 h,"[1]; 0.3 mg/kg, Plasma Compound 2 Concentration (μM) Mean ± SEM, 0.3 mg/kg single oral dose, 3 h",0.07 ± 0.01 µM
same,concentration at 6 h,"[1]; 0.3 mg/kg, Plasma Compound 2 Concentration (μM) Mean ± SEM, 0.3 mg/kg single oral dose, 6 h",0.07 ± 0.01 µM
same,concentration at 10 h,"[1]; 0.3 mg/kg, Plasma Compound 2 Concentration (μM) Mean ± SEM, 0.3 mg/kg single oral dose, 10 h",0.04 ± 0.01 µM
same,concentration at 24 h,"[1]; 0.3 mg/kg, Plasma Compound 2 Concentration (μM) Mean ± SEM, 0.3 mg/kg single oral dose, 24 h",0 µM
same,concentration at 1 h,"[1]; 1 mg/kg, 1 mg/kg BID, 1 h after last dose, read-out: Plasma Concentration (μM) Mean ± SEM",0.73 ± 0.14 µM
same,concentration at 3 h,"[1]; 1 mg/kg, 1 mg/kg BID, 3 h after last dose, read-out: Plasma Concentration (μM) Mean ± SEM",0.48 ± 0.04 µM
same,concentration at 6 h,"[1]; 1 mg/kg, 1 mg/kg BID, 6 h after last dose, read-out: Plasma Concentration (μM) Mean ± SEM",0.22 ± 0.04 µM
same,concentration at 10 h,"[1]; 1 mg/kg, 1 mg/kg BID, 10 h after last dose, read-out: Plasma Concentration (μM) Mean ± SEM",0.11 ± 0.01 µM
same,concentration at 24 h,"[1]; 1 mg/kg, 1 mg/kg BID, 24 h after last dose, read-out: Plasma Concentration (μM) Mean ± SEM",0.02 µM
same,concentration at 10 h,"[1]; 1 mg/kg, 1 mg/kg single dose, read-out: plasma concentration at which pS6RP and pAKT (S473) were inhibited through 10 hours",0.12 ± 0.003 µM
same,concentration at 1 h,"[1]; 1 mg/kg, Plasma Compound 2 Concentration (μM) Mean ± SEM, 1 mg/kg single oral dose, 1 h",0.53 ± 0.02 µM
same,concentration at 3 h,"[1]; 1 mg/kg, Plasma Compound 2 Concentration (μM) Mean ± SEM, 1 mg/kg single oral dose, 3 h",0.34 ± 0.01 µM
same,concentration at 6 h,"[1]; 1 mg/kg, Plasma Compound 2 Concentration (μM) Mean ± SEM, 1 mg/kg single oral dose, 6 h",0.13 ± 0.01 µM
same,concentration at 10 h,"[1]; 1 mg/kg, Plasma Compound 2 Concentration (μM) Mean ± SEM, 1 mg/kg single oral dose, 10 h",0.12 µM
same,concentration at 24 h,"[1]; 1 mg/kg, Plasma Compound 2 Concentration (μM) Mean ± SEM, 1 mg/kg single oral dose, 24 h",0.005 µM
same,concentration at 1 h,"[1]; 2 mg/kg, 2 mg/kg QD, 1 h after last dose, read-out: Plasma Concentration (μM) Mean ± SEM",1.02 ± 0.2 µM
same,concentration at 3 h,"[1]; 2 mg/kg, 2 mg/kg QD, 3 h after last dose, read-out: Plasma Concentration (μM) Mean ± SEM",0.59 ± 0.08 µM
same,concentration at 6 h,"[1]; 2 mg/kg, 2 mg/kg QD, 6 h after last dose, read-out: Plasma Concentration (μM) Mean ± SEM",0.27 ± 0.08 µM
same,concentration at 10 h,"[1]; 2 mg/kg, 2 mg/kg QD, 10 h after last dose, read-out: Plasma Concentration (μM) Mean ± SEM",0.21 µM
same,concentration at 24 h,"[1]; 2 mg/kg, 2 mg/kg QD, 24 h after last dose, read-out: Plasma Concentration (μM) Mean ± SEM",0.02 ± 0.01 µM
same,concentration at 24 h,"[1]; 5 mg/kg, Compound 2 in the plasma, efficacy study, 5 mg/kg QD, 24 hours after the last dose",0.13 µM
same,concentration at 1 h,"[1]; 10 mg/kg, Plasma Compound 2 Concentration (μM) Mean ± SEM, 10 mg/kg single oral dose, 1 h",6.78 ± 1.16 µM
same,concentration at 3 h,"[1]; 10 mg/kg, Plasma Compound 2 Concentration (μM) Mean ± SEM, 10 mg/kg single oral dose, 3 h",5.69 ± 0.96 µM
same,concentration at 6 h,"[1]; 10 mg/kg, Plasma Compound 2 Concentration (μM) Mean ± SEM, 10 mg/kg single oral dose, 6 h",2.1 ± 0.22 µM
same,concentration at 10 h,"[1]; 10 mg/kg, Plasma Compound 2 Concentration (μM) Mean ± SEM, 10 mg/kg single oral dose, 10 h",1.18 ± 0.2 µM
same,concentration at 24 h,"[1]; 10 mg/kg, Plasma Compound 2 Concentration (μM) Mean ± SEM, 10 mg/kg single oral dose, 24 h",0.8 ± 0.09 µM
same,AUC(0-t),"[1]; 0.5 mg/kg, 0.5 mg/kg BID, after last dose, read-out: total plasma AUC0-10 h",1.42 µM·h
same,AUC(0-t),"[1]; 1 mg/kg, 1 mg/kg BID, after last dose, read-out: total plasma AUC0-10 h",3.27 µM·h
same,AUC(0-t),"[1]; 1 mg/kg, 1 mg/kg QD (BID/QD study), read-out: total plasma AUC0-24 h",2.95 µM·h
same,AUC(0-t),"[1]; 1 mg/kg, 1 mg/kg QD, last day, read-out: total plasma AUC0-24 h",2.33 µM·h
same,AUC(0-t),"[1]; 2 mg/kg, 2 mg/kg QD, last day, read-out: total plasma AUC0-24 h",5.93 µM·h
same,AUC(0-t),"[1]; 5 mg/kg, 5 mg/kg QD, last day, read-out: total plasma AUC0-24 h",17 µM·h
same,inhibition at 0.1 mg/kg,pAKT (S473); [2],50%
same,inhibition at 0.1 mg/kg,pAKT (S473); [3],25.1%
same,inhibition at 0.1 mg/kg,pAKT (S473); [4],15.3%
same,inhibition at 0.1 mg/kg,pAKT (S473); [5],14.2%
same,inhibition at 0.1 mg/kg,pAKT (S473); [6],2.5%
same,inhibition at 0.1 mg/kg,pAKT (S473); [7],0%
same,inhibition at 0.3 mg/kg,pAKT (S473); [2],77.2%
same,inhibition at 0.3 mg/kg,pAKT (S473); [3],70.7%
same,inhibition at 0.3 mg/kg,pAKT (S473); [4],52.9%
same,inhibition at 0.3 mg/kg,pAKT (S473); [5],42.2%
same,inhibition at 0.3 mg/kg,pAKT (S473); [6],23%
same,inhibition at 0.3 mg/kg,pAKT (S473); [7],9.6%
same,inhibition at 1 mg/kg,"pAKT (S473); 1 mg/kg single dose, through 10 hours, read-out: inhibition of pAKT (S473) in tumor",~65%
same,inhibition at 1 mg/kg,"pAKT (S473); 1 mg/kg single oral dose, 1 h, read-out: PD Marker Inhibition (%) pAKT (S473)",79.6%
same,inhibition at 1 mg/kg,"pAKT (S473); 1 mg/kg single oral dose, 3 h, read-out: PD Marker Inhibition (%) pAKT (S473)",65.1%
same,inhibition at 1 mg/kg,"pAKT (S473); 1 mg/kg single oral dose, 6 h, read-out: PD Marker Inhibition (%) pAKT (S473)",69.9%
same,inhibition at 1 mg/kg,"pAKT (S473); 1 mg/kg single oral dose, 10 h, read-out: PD Marker Inhibition (%) pAKT (S473)",65.5%
same,inhibition at 1 mg/kg,"pAKT (S473); 1 mg/kg single oral dose, 24 h, read-out: PD Marker Inhibition (%) pAKT (S473)",19%
same,inhibition at 10 mg/kg,pAKT (S473); [3],87.6%
same,inhibition at 10 mg/kg,pAKT (S473); [4],88.3%
same,inhibition at 10 mg/kg,pAKT (S473); [5],86.9%
same,inhibition at 10 mg/kg,pAKT (S473); [6],86%
same,inhibition at 10 mg/kg,pAKT (S473); [7],79.8%
same,positive threshold area stained for DNA-PKcs vs vehicle,DNA-PKcs,no significant difference
